Assays:
[1] = tested on: HMC3 cells; test: pHrodo-myelin phagocytosis/cell health assay, HMC3 cells; format: cell-based; conditions: Homo sapiens, compound 48 hrs, 60 μM to 3 nM, (n) in cell
Experimental: (§1) pHrodo-myelin phagocytosis/cell health assay with microglial cells. This 384-well plate high content imaging assay was developed to quantify phagocytosis and cell health simultaneously using either BV2 or HMC3 immortalized microglial cell lines or primary microglia isolated from mouse brain. Cells were cultured in DMEM GlutaMax media (ThermoFisher) containing 10% FBS and Pen-Strep in 37° C. 5% CO2 incubator.
(§2) Day 1: Cells were plated (Corning Falcon 384 well Optilux Black and clear bottom plates for imaging) with BV2 at 400 cells/45 μl/well, HMC3 at 600 cells/45 μl/well, or primary at 2000 cell/45 μl/well.
(§3) Day 2: Cells were treated with 10× serially diluted compounds in a dose range of 60 μM to 3 nM for 48 hrs at 37° C.
(§4) Day 3: Cells were seeded with pHrodo-myelin (for total 20 hrs) 24 hrs after starting compound treatment. The pHrodo-myelin stocks were at 1 mg/ml (protein equivalent) stored in −20° C. or −80° C. freezer. Stocks were thawed and diluted with culture media into 10× seeding solution (50 μg/ml) and added 5 μl/well to 384 well cell plate.
(§5) Day 4: Cell staining and imaging. Nuclear staining solution was prepared by adding 1 μl of 10 mg/mL Hoechst-33342 to every 1 ml culture media that will be added to cell plate at 20 μl/well. The final concentration of Hoechst-33342 to cells was about 2.5 μg/ml. Cell plates were incubated for >30 min at 37° C. before imaging. Cell plates were scanned with an ArrayScan automatic high content imaging system using a 10× objective lens, 4 fields/well collected. Three measurements were obtained 1) mean total phagocytosis spot intensity per cell, 2) total cell counts per well, and 3) mean average nuclear intensity per cell for cell health.
(§6) This 384-well plate high content imaging assay was developed to quantify phagocytosis and cell health simultaneously using either BV2 or HMC3 immortalized microglial cell lines or primary microglia isolated from mouse brain. Cells were cultured in DMEM GlutaMax media (ThermoFisher) containing 10% FBS and Pen-Strep in 37° C. 5% CO2 incubator. Day 1: Cells were plated (Corning Falcon 384 well Optilux Black and clear bottom plates for imaging) with BV2 at 400 cells/45 μl/well, HMC3 at 600 cells/45 μl/well, or primary at 2000 cell/45 μl/well. Day 2: Cells were treated with 10× serially diluted compounds in a dose range of 60 μM to 3 nM for 48 hrs at 37° C. Day 3: Cells were seeded with pHrodo-myelin (for total 20 hrs) 24 hrs after starting compound treatment. The pHrodo-myelin stocks were at 1 mg/ml (protein equivalent) stored in −20° C. or −80° C. freezer. Stocks were thawed and diluted with culture media into 10× seeding solution (50 μg/ml) and added 5 μl/well to 384 well cell plate. Day 4: Cell staining and imaging. Nuclear staining solution was prepared by adding 1 μl of 10 mg/mL Hoechst-33342 to every 1 ml culture media that will be added to cell plate at 20 μl/well. The final concentration of Hoechst-33342 to cells was about 2.5 μg/ml. Cell plates were incubated for >30 min at 37° C. before imaging. Cell plates were scanned with an ArrayScan automatic high content imaging system using a 10× objective lens, 4 fields/well collected. Three measurements were obtained 1) mean total phagocytosis spot intensity per cell, 2) total cell counts per well, and 3) mean average nuclear intensity per cell for cell health.

[2] = tested on: BV2 cells; test: pHrodo-myelin phagocytosis/cell health assay, BV2 cells; format: cell-based; conditions: Mus musculus, BV-2, compound 48 hrs, 60 μM to 3 nM, (n) in cell
Experimental: as §1, §2, §3, §4, §5, §6

[3] = tested on: phosphorylated and total AKT (pAKT/tAKT) in THP1 cells; test: PhosphoAKT assay; format: cell-based; conditions: Homo sapiens, THP-1, 1.5 h, 90 minutes, pAKT (S473)/tAKT ratio, (n) in cell
Experimental: (§7) PhosphoAKT assay. THP1 cells were treated with inhibitors for 90 minutes and then the levels of phosphorylated and total AKT (pAKT/tAKT) were detected using the Perkin Elmer Alpha SureFire Ultra Multiplex PhosphoAKT (S473) kit according to the manufacturer's directions. IC50 values were calculated by fitting the ratio of pATK/tAKT versus inhibitor concentration.
as §7, with “THP1” for “PhosphoAKT assay. THP1”

[4] = Pharmacokinetics in C57BL/6J mice; format: in vivo, mouse; conditions: dosed orally at 100 mg/kg
Experimental: Pharmacokinetics of Compound 9. Compound 9 was formulated at 5 mg/ml in HPMC (1%)/Tween 80 (0.25%)/purified water. Male C57BL/6J mice aged 8-12 weeks from The Jackson Laboratory were dosed (100 mg/kg, 20 ml/kg) via oral gavage. Plasma exposures at 0.5, 1, 2, 4, 6, 8, 12 hr and terminal at 24 hr were obtained. Brain exposures were obtained at terminal 4 and 24 hrs. The pharmacokinetics of Compound 10 was obtained in a similar manner to Compound 9. Compound was formulated in hydroxyethylcellulose (1%)/Tween 80 (0.25%)/antifoam (0.050%)/water (purified) at a concentration of 5 mg/ml. 100 mg/kg, 20 ml/kg was dosed via oral gavage. Plasma exposures at 0.25, 0.5, 1, 2, 8 hr and terminal at 24 hrs were obtained. Brain exposures were obtained at terminal 4 and 24 hrs. The results are depicted in FIG. 4. Pharmacokinetics of compound 10 in C57BL/6J Mice were obtained in a similar manner as compound 9. The results are depicted in FIG. 4.

SMILES	EC50 [1]	EC50 [2]	IC50 [3]	exposure in brain [4]	exposure in plasma [4]
CC(C)(C)OC(=O)N1CCC(n2cc(-c3cncc(OCc4ccccc4Cl)c3)cn2)CC1 [Compound 1, tert-butyl 4-(4-{5-[(2-chlorophenyl)methoxy]pyridin-3-yl}-1H-pyrazol-1-yl)piperidine-1-carboxylate]	15.9 µM	2.33 µM	–	–	–
CC(C)(C)OC(=O)N1CCC(n2cc(-c3cncc(OCc4ccccc4F)c3)cn2)CC1 [Compound 2, tert-butyl 4-(4-(5-((2-fluorobenzyl)oxy)pyridin-3-yl)-1H-pyrazol-1-yl)piperidine-1-carboxylate]	1.44 µM	1.56 µM	–	–	–
Cc1ccccc1COc1cncc(-c2cnn(C3CCN(C(=O)OC(C)(C)C)CC3)c2)c1 [Compound 3, tert-butyl 4-(4-(5-((2-methylbenzyl)oxy)pyridin-3-yl)-1H-pyrazol-1-yl)piperidine-1-carboxylate]	4.19 µM	1.03 µM	31.2 µM	–	–
CC(C)(C)OC(=O)N1CCC(n2cc(-c3cncc(OCc4ccccc4)c3)cn2)CC1 [Compound 4, tert-butyl 4-(4-(5-(benzyloxy)pyridin-3-yl)-1H-pyrazol-1-yl)piperidine-1-carboxylate]	2.01 µM	3.23 µM	31.6 µM	–	–
CC(C)(C)OC(=O)N1CCC(n2cc(-c3cncc(OCc4c(Cl)cccc4Cl)c3)cn2)CC1 [Compound 5, tert-butyl 4-(4-(5-((2,6-dichlorobenzyl)oxy)pyridin-3-yl)-1H-pyrazol-1-yl)piperidine-1-carboxylate]	3.72 µM	–	–	–	–
CC(C)(C)OC(=O)N1CCC(n2cc(-c3cncc(OCc4ccc(Br)cc4)c3)cn2)CC1 [Compound 7, tert-butyl 4-(4-(5-((4-bromobenzyl)oxy)pyridin-3-yl)-1H-pyrazol-1-yl)piperidine-1-carboxylate]	2.43 µM	0.756 µM	–	–	–
Cl.Clc1ccccc1COc1cncc(-c2cnn(C3CCNCC3)c2)c1 [Compound 9, 3-((2-chlorobenzyl)oxy)-5-(1-(piperidin-4-yl)-1H-pyrazol-4-yl)pyridine hydrochloride]	0.584 µM	0.741 µM	–	0.5 µM	5 µM
Cl.Clc1ccc(COc2cncc(-c3cnn(C4CCNCC4)c3)c2)c(Cl)c1 [Compound 10, 3-((2,4-dichlorobenzyl)oxy)-5-(1-(piperidin-4-yl)-1H-pyrazol-4-yl)pyridine hydrochloride]	0.308 µM	1.75 µM	6.52 µM	6 µM	2 µM
CC(C)(C)CCN1CCC(n2cc(-c3cncc(OCc4ccccc4Cl)c3)cn2)CC1 [Compound 15, 3-((2-chlorobenzyl)oxy)-5-(1-(1-(3,3-dimethylbutyl)piperidin-4-yl)-1H-pyrazol-4-yl)pyridine]	2.1 µM	2.26 µM	17.9 µM	–	–
CC(C)(C)CC(=O)N1CCC(n2cc(-c3cncc(OCc4ccccc4Cl)c3)cn2)CC1 [Compound 16, 1-(4-(4-(5-((2-chlorobenzyl)oxy)pyridin-3-yl)-1H-pyrazol-1-yl)piperidin-1-yl)-3,3-dimethylbutan-1-one]	2.07 µM	1.17 µM	> 60 µM	–	–
C[C@H](Oc1cncc(-c2cnn(C3CCNCC3)c2)c1)c1ccccc1Cl [Compound 21, (S)-3-(1-(2-chlorophenyl)ethoxy)-5-(1-(piperidin-4-yl)-1H-pyrazol-4-yl)pyridine]	0.722 µM	0.395 µM	–	–	–
C[C@@H](Oc1cncc(-c2cnn(C3CCNCC3)c2)c1)c1ccc(Cl)cc1 [Compound 23, (R)-3-(1-(4-chlorophenyl)ethoxy)-5-(1-(piperidin-4-yl)-1H-pyrazol-4-yl)pyridine]	0.145 µM	2.6 µM	4.06 µM	–	–
Cc1ccccc1COc1cncc(-c2cnn(C3CCNCC3)c2)c1 [Compound 25, 3-[(2-Methylphenyl)methoxy]-5-[1-(piperidin-4-yl)-1H-pyrazol-4-yl]pyridine]	1.35 µM	–	58.4 µM	–	–
Clc1ccccc1COc1cncc(-c2ccn(C3CCNCC3)n2)c1 [Compound 26, 3-((2-chlorobenzyl)oxy)-5-(1-(piperidin-4-yl)-1H-pyrazol-3-yl)pyridine]	–	–	7.72 µM	–	–
Clc1ccccc1COc1cncc(-n2ccc(C3CCNCC3)n2)c1 [Compound 27, 3-((2-chlorobenzyl)oxy)-5-(3-(piperidin-4-yl)-1H-pyrazol-1-yl)pyridine]	–	–	> 60 µM	–	–
Clc1ccccc1COc1cncc(-n2cc(C3CCNCC3)cn2)c1 [Compound 28, 3-((2-chlorobenzyl)oxy)-5-(4-(piperidin-4-yl)-1H-pyrazol-1-yl)pyridine]	–	–	5.57 µM	–	–
Clc1ccccc1COc1cccc(-c2cnn(C3CCNCC3)c2)c1 [Compound 29, 4-(4-(3-((2-chlorobenzyl)oxy)phenyl)-1H-pyrazol-1-yl)piperidine]	–	–	6.55 µM	–	–
